According to PubChem BioAssay AID2060912 (Molecular Pharmacology Branch, DTP, NCI, 2025):
pIC50: −log10 of the molar value.

System: HUVEC/MSC spheroids viability
Assay: Human HUVEC/MSC cell line growth inhibition [KRAS2];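 for viability, T/C: percent of DMSO vehicle control luminescence so 100% = untreated viability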
Details: for pIC50: curve of first compound; for viability, T/C: stronger effect = lower value; active = viability on the fitted dose curve at most 10% of control; inactive = the rest
In short: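 Spheroids of human HUVEC plus MSCs, without tumor cells, were treated with single agents and combinations. Each drug was tested in half-log steps down from near its clinical Cmax, or from 10 microM when Cmax was unknown. HUVEC and hMSC were used at passage </=5.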

CCNC(=O)CC1N=C(c2ccc(Cl)cc2)c2cc(OC)ccc2-n2c(C)nnc21 (configuration not stated) + CC1OCC2(CCN(c3cnc(Sc4ccnc(N)c4Cl)c(N)n3)CC2)C1N
5.52: pIC50 (second compound 10 µM)
inactive: viability, T/C (second compound 0.0316 µM, first compound 0.0316 µM) 79.7% | viability, T/C (second compound 0.0316 µM, first compound 0.1 µM) 102% | viability, T/C (second compound 0.0316 µM, first compound 0.316 µM) 99.2% | viability, T/C (second compound 0.0316 µM, first compound 1 µM) 87.5% | viability, T/C (second compound 0.0316 µM, first compound 3.16 µM) 110% | viability, T/C (second compound 0.0316 µM, first compound 10 µM) 89.4% | viability, T/C (second compound 0.1 µM, first compound 0.0316 µM) 107% | viability, T/C (second compound 0.1 µM, first compound 0.1 µM) 86.2% | viability, T/C (second compound 0.1 µM, first compound 0.316 µM) 102% | viability, T/C (second compound 0.1 µM, first compound 1 µM) 91.8% | viability, T/C (second compound 0.1 µM, first compound 3.16 µM) 99% | viability, T/C (second compound 0.1 µM, first compound 10 µM) 95.3% | viability, T/C (second compound 0.316 µM, first compound 0.0316 µM) 90.6% | viability, T/C (second compound 0.316 µM, first compound 0.1 µM) 88.6% | viability, T/C (second compound 0.316 µM, first compound 0.316 µM) 87.1% | viability, T/C (second compound 0.316 µM, first compound 1 µM) 88.2% | viability, T/C (second compound 0.316 µM, first compound 3.16 µM) 88% | viability, T/C (second compound 0.316 µM, first compound 10 µM) 84.1% | viability, T/C (second compound 1 µM, first compound 0.0316 µM) 79.3% | viability, T/C (second compound 1 µM, first compound 0.1 µM) 97.8% | viability, T/C (second compound 1 µM, first compound 0.316 µM) 76.6% | viability, T/C (second compound 1 µM, first compound 1 µM) 68.4% | viability, T/C (second compound 1 µM, first compound 3.16 µM) 77.2% | viability, T/C (second compound 1 µM, first compound 10 µM) 58.8% | viability, T/C (second compound 3.16 µM, first compound 0.0316 µM) 83.5% | viability, T/C (second compound 3.16 µM, first compound 0.1 µM) 103% | viability, T/C (second compound 3.16 µM, first compound 0.316 µM) 81.4% | viability, T/C (second compound 3.16 µM, first compound 1 µM) 73.8% | viability, T/C (second compound 3.16 µM, first compound 3.16 µM) 66% | viability, T/C (second compound 3.16 µM, first compound 10 µM) 51.3% | viability, T/C (second compound 10 µM, first compound 0.0316 µM) 66% | viability, T/C (second compound 10 µM, first compound 0.1 µM) 64.5% | viability, T/C (second compound 10 µM, first compound 0.316 µM) 77.8% | viability, T/C (second compound 10 µM, first compound 1 µM) 64% | viability, T/C (second compound 10 µM, first compound 3.16 µM) 49.6% | viability, T/C (second compound 10 µM, first compound 10 µM) 30%
< 5.00: pIC50 (second compound 0.0316 µM) | pIC50 (second compound 0.1 µM) | pIC50 (second compound 0.316 µM) | pIC50 (second compound 1 µM) | pIC50 (second compound 3.16 µM)
